Assays:
Wistar rats [1] = test: Subacute toxicity: glomerular filtration rate (creatinine clearance) and serum creatinine; type: in vivo; details: for Glomerular Filtration Rate / Serum Creatinine: rats, p.o., 14 days at 10% of LD50 (CCl4, APAP: once daily, 3 days), mean ± SEM, n = 6
Protocol: (§1) For toxicity tests, acclimatized rats were randomly allocated to 12 groups (n = 12 for the control and n = 6 for the rest groups). […] Meanwhile, the aforementioned vehicles (dose volume 2 mL/kg b.w.) were administered to 3 groups. […] The animals were then housed in individual metabolic cages to collect urine for a period of 6 h and then the volume was recorded. Afterward, blood samples were obtained and the serum was separated by centrifugation at 1,620 × g for 10 min at room temperature.
(§2) Serum and urinary creatinine were determined by the Jaffe method. With this value, evaluation was made of the fractional excretion of sodium (FES), fractional excretion of potassium (FEP), and fractional excretion of glucose.[30]^,[31] The GFR was calculated from clearance of endogenous creatinine using the conventional equation:where GFR (CCr) is the creatinine clearance rate (mL/min); UCr and SCr are the creatinine concentrations (mg/dL) in urine and serum, respectively; and φ is the urinary flow rate (UFR) (mL/min). To avoid the error from the tubular secretion of creatinine found in males, only female animals were used.

Wistar rats [2] = test: Subacute toxicity: serum alanine aminotransferase and alkaline phosphatase activity; type: in vivo; details: for Alanine Aminotransferase / Alkaline Phosphatase: serum, rats, p.o., 14 days at 10% of LD50 (CCl4, APAP: once daily, 3 days), mean ± SEM, n = 6
Protocol: (§3) For toxicity tests, acclimatized rats were randomly allocated to 12 groups (n = 12 for the control and n = 6 for the rest groups). […] Meanwhile, the aforementioned vehicles (dose volume 2 mL/kg b.w.) were administered to 3 groups. […] Upon completion of the 14-day treatments and before sample collection, the bladders of animals were emptied by gentle pressure on the lower part of the abdomen to induce urination. The animals were then housed in individual metabolic cages to collect urine for a period of 6 h and then the volume was recorded. Afterward, blood samples were obtained and the serum was separated by centrifugation at 1,620 × g for 10 min at room temperature.
The activities of serum alanine aminotransferase (ALT) and alkaline phosphatase (ALP) were measured with standard kits (RANDOX, Laboratories Ltd, UK).

Wistar rats [3] = test: Subacute toxicity: serum and urine glucose, urinary protein excretion; type: in vivo; details: for Filtered Load of Glucose / Fractional Excretion of Glucose / Serum Glucose / Urinary Glucose Excretion / Urinary Protein Excretion: rats, p.o., 14 days at 10% of LD50 (CCl4, APAP: once daily, 3 days), mean ± SEM, n = 6
Protocol: as §1
Serum and urine glucose concentration were calculated using GOD-PAP kits (RANDOX, Laboratories Ltd, UK). Urinary protein was quantified using the Bradford method.[29]
as §2
(§4) The levels of sodium and potassium were measured in urine and serum using a flame photometer (Corning 400, Medfield, United States). Calculation was made of the clearance, fractional excretion, and filtered load of sodium (FLS), filtered load of potassium (FLP), and filtered load of glucose (FLG) using the conventional equations:where CX is the clearance rate of X (mL/min), CCr is the creatinine clearance rate (mL/min), UX and SX are the […] concentrations of X, respectively, φ is the UFR (mL/min), FEX is the fractional excretion (%) of X, and FLX is the filtered load of X in μEq/min (Na^+ or K^+) or mg/min (glucose).

Wistar rats [4] = test: Subacute toxicity: water and electrolyte balance (osmolality, sodium, potassium, urinary flow); type: in vivo; details: for osmolar clearance, change in words / freewater clearance, change in words: compared to the control group; for freewater clearance, change in words: significant by PLS VIP and ANOVA; for Filtered Load of Potassium / Filtered Load of Sodium / Fractional Excretion of Potassium / Fractional Excretion of Sodium / Serum Osmolality / Serum Potassium / Serum Sodium / U/S Osm ratio / Urinary Flow Rate / Urinary Potassium Excretion / Urinary Sodium Excretion: rats, p.o., 14 days at 10% of LD50 (CCl4, APAP: once daily, 3 days), mean ± SEM, n = 6
Protocol: as §1
Osmolality of serum and urine were assessed (in triplicate) by using a vapor pressure osmometer (Wescor 5500, Logan, United States). U/S ratio as well as osmolar (COsm) and free water clearances were calculated via conventional equations:where UOsm and SOsm are the osmolality values (mOsm/Kg) in urine and serum, respectively, and φ is the UFR (mL/min).
as §4

Wistar rats [5] = test: Hepatic and renal lipid peroxidation (lipid-soluble fluorescence); type: in vivo; details: for Renal Lipoperoxidation: kidney; for Renal Lipoperoxidation / Hepatic Lipoperoxidation: rats, p.o., 14 days at 10% of LD50 (CCl4, APAP: once daily, 3 days), mean ± SEM, n = 6; for Hepatic Lipoperoxidation: liver
Protocol: as §3
Lipid peroxidation (LPO) was evaluated by the formation of lipid-soluble fluorescence, as previously described. Briefly, kidney and liver tissues were homogenized in 3 and 5 mL of phosphate buffer (0.2 M, pH = 7.4), respectively. A volume of 1 mL (kidney) or 0.8 mL (liver) of the homogenates was added to 7 mL of chloroform-methanol (2:1, v/v), and after 15 s of vortex mixing, the resulting mixture was cooled using an ice bath for 30 min to allow for phase separation. The fluorescence of the organic phase was measured using a Shimadzu fluorometer (Japan; λex = 370 nm; λem = 430 nm), whose sensitivity was adjusted to 140 fluorescence units by using 1 μg/mL of quinine sulfate in 50 mM H2SO4. The results were expressed as relative fluorescence units per milligram of protein.[33]
(§5) The protein concentration in homogenates was measured by the Bradford method.[29]

[6] = system: renal secretory pathway of organic anions; test: Active tubular secretion of organic acids (PAH uptake in kidney cortex slices); type: in vivo, rats; details: for PAH t/m ratio: kidney cortex slices, PAH 1 mM, 1 h, 25 °C, rats, p.o., 14 days at 10% of LD50 (CCl4, APAP: once daily, 3 days), mean ± SEM, n = 6
Protocol: as §3
p-Aminohippuric acid (PAH) was used as an indicator of the renal secretory pathway of organic anions. Kidneys were extracted and immediately submerged in Ringer solution (pH = 7.4 and mOsm = 290 ± 10 mOsm/kg) under constant bubbling with O2/CO2 (95/5%). The kidneys were decapsulated and slices of the kidney cortex were obtained, which were then incubated in Ringer solution containing PAH (1 mM) for 1 h at 25 °C under constant bubbling with O2/CO2 (95/5%). The levels of PAH were quantified with the Bratton-Marshall method and results were expressed as the PAH tissue/medium ratio (PAH t/m ratio).[31]^,[32]

Wistar rats [7] = test: Hepatic and renal reactive oxygen species (DCF formation); type: in vivo; details: rats, p.o., 14 days at 10% of LD50 (CCl4, APAP: once daily, 3 days), mean ± SEM, n = 6; for Renal ROS: kidney; for Hepatic ROS: liver
Protocol: as §3
Reactive oxygen species (ROS) were measured by formation of 2′,7′-dichlorofluorescein (DCF). An aliquot of 10 μL (kidney) or 5 μL (liver) of the homogenates was added to 1,940 or 1,945 μL of TRIS:HEPES (18:1) and was incubated in the presence of 50 μL of 2′,7′-dichlorofluorescein diacetate for 1 h at 37 °C. In order to quench the reaction, the mixture was chilled using an ice bath. The fluorescence was measured using a Shimadzu fluorometer (Japan; λex = 488 nm; λem = 525 nm). The results were expressed as nM DCF formed per mg protein/h.[33]
as §5

NIH mice = test: Acute oral toxicity, median lethal dose (LD50); type: in vivo; details: for Category (GHS acute oral toxicity hazard category) / Hazard statement (GHS): based on oral LD50, according to GHS [39]; for Oral LD50: female NIH mice, single oral dose, 14 days observation
Protocol: All treatments were administrated orally (p.o.) according to the scheme mentioned below.
Acute toxicity tests were performed in order to measure the median lethal dose (LD50). After acclimatization, mice were randomly allocated to ten groups (n = 4), including the control group (e.g. water, Tween 80, or PO) and the experimental groups, each with a single dose of one of the IMPYs at 4 levels of dose (0.5, 1.0, 2.0, and 4.0 g/kg b.w.).
Animals were food deprived overnight prior to administration of the chemical compounds or vehicles, and food was returned 4 h after dosing. Animals had access to water ad libitum throughout the study.[27]^,[28]

[8] = in comparison with the control group

SMILES	Glomerular Filtration Rate (Wistar rats [1]) [mL/min]	Serum Creatinine (Wistar rats [1]) [mg/dL]	Alanine Aminotransferase (Wistar rats [2]) [U/L]	Alkaline Phosphatase (Wistar rats [2]) [U/L]	Filtered Load of Glucose (Wistar rats [3]) [mg/min]	Fractional Excretion of Glucose (Wistar rats [3]) [%]	Serum Glucose (Wistar rats [3]) [mg/dL]	Urinary Glucose Excretion (Wistar rats [3]) [ng/min]	Urinary Protein Excretion (Wistar rats [3]) [µg/min]	Filtered Load of Potassium (Wistar rats [4]) [µEq/min]	Filtered Load of Sodium (Wistar rats [4]) [µEq/min]	Fractional Excretion of Potassium (Wistar rats [4]) [%]	Fractional Excretion of Sodium (Wistar rats [4]) [%]	Serum Osmolality (Wistar rats [4]) [mOsm/kg]	Serum Potassium (Wistar rats [4]) [mEq/L]	Serum Sodium (Wistar rats [4]) [mEq/L]	U/S Osm ratio (Wistar rats [4])	Urinary Flow Rate (Wistar rats [4]) [µL/min]	Urinary Potassium Excretion (Wistar rats [4]) [µEq/min]	Urinary Sodium Excretion (Wistar rats [4]) [µEq/min]	further results
O=C(O)c1cn2ccccc2n1 [Compound 3a, imidazo[1,2-a]pyridine-2-carboxylic acid]	0.28 ± 0.04	1.05 ± 0.05	25.62 ± 1.27	93.76 ± 13.08	0.22 ± 0.03	0.05 ± 0.01	80.56 ± 2.31	92.91 ± 12.35	0.69 ± 0.14	1.98 ± 0.44	40.07 ± 7.62	27.89 ± 6.73	0.53 ± 0.16	304.73 ± 1.82	6.83 ± 0.54	148.12 ± 3.02	3.18 ± 0.61	2.20 ± 0.50	0.50 ± 0.12	0.17 ± 0.05	GFR, change in words (Wistar rats [1]; in comparison to the control group): lower; FEG (fractional excretion of glucose), change in words (Wistar rats [3]; compared to control values): increased; FLG (filtered load of glucose), change in words (Wistar rats [3]; compared to control values): reduced; osmolar clearance, change in words (Wistar rats [4]): lower; freewater clearance, change in words (Wistar rats [4]): greater; FLS (filtered load of sodium), change in words (Wistar rats [4]; [8]): decreased; Renal Lipoperoxidation (Wistar rats [5]): 0.29 ± 0.03 URF/mg protein; Hepatic Lipoperoxidation (Wistar rats [5]): 0.79 ± 0.03 URF/mg protein; PAH t/m ratio [6]: 2.25 ± 0.10; Renal ROS (Wistar rats [7]): 159.65 ± 14.96 nM de DCF/mg protein/h; Hepatic ROS (Wistar rats [7]): 349.63 ± 18.87 nM de DCF/mg protein/h; Category (GHS acute oral toxicity hazard category) (NIH mice): 5; Hazard statement (GHS) (NIH mice): May be harmful if swallowed; Oral LD50 (NIH mice): > 2.000 g/kg b.w.
N#Cc1nc2ccccn2c1[N+](=O)[O-] [Compound 2b, 3-nitroimidazo[1,2-a]pyridine-2-carbonitrile]	1.81 ± 0.26	0.56 ± 0.08	44.90 ± 2.46	192.21 ± 38.07	2.29 ± 0.33	0.01 ± 1.8E-3	126.47 ± 5.03	109.06 ± 24.61	0.86 ± 0.20	10.21 ± 1.12	267.24 ± 51.35	13.47 ± 1.95	0.88 ± 0.29	288.93 ± 1.51	5.79 ± 0.31	141.65 ± 15.47	3.44 ± 0.10	8.29 ± 1.67	1.38 ± 0.21	1.87 ± 0.39	serum ALP, change in words (Wistar rats [2]; compared to the control (CCl4 also versus PO)): greater; FLG (filtered load of glucose), change in words (Wistar rats [3]; versus 2a): increased; urinary sodium excretion (USE), change in words (Wistar rats [4]; 2b versus control, tween 80, and 2a, 4 versus control): higher; potassium clearance, change in words (Wistar rats [4]; compared to the control (2b also versus 2a)): increased; urinary potassium excretion (UPE), change in words (Wistar rats [4]; compared to the control and 2a): increased; osmolar clearance, change in words (Wistar rats [4]): greater; freewater clearance, change in words (Wistar rats [4]): lower; UFR (urinary flow rate), change in words (Wistar rats [4]; [8]): increased; FES (fractional excretion of sodium), change in words (Wistar rats [4]; in comparison with tween 80): increased; sodium clearance, change in words (Wistar rats [4]; versus control, tween 80, and 2a): higher; renal LPO, change in words (Wistar rats [5]; compared to the control group (CCl4 also versus PO)): greater; Renal Lipoperoxidation (Wistar rats [5]): 0.47 ± 0.03 URF/mg protein; Hepatic Lipoperoxidation (Wistar rats [5]): 0.64 ± 0.10 URF/mg protein; PAH t/m ratio [6]: 2.11 ± 0.20; Renal ROS (Wistar rats [7]): 225.78 ± 56.22 nM de DCF/mg protein/h; Hepatic ROS (Wistar rats [7]): 208.65 ± 30.24 nM de DCF/mg protein/h; Category (GHS acute oral toxicity hazard category) (NIH mice): 4; Hazard statement (GHS) (NIH mice): Harmful if swallowed; Oral LD50 (NIH mice): 1.606 g/kg b.w.
O=C(O)c1nc2ccccn2c1[N+](=O)[O-] [Compound 3b, 3-nitroimidazo[1,2-a]pyridine-2-carboxylic acid]	0.63 ± 0.08	0.57 ± 0.12	32.76 ± 5.37	56.63 ± 6.67	0.74 ± 0.09	0.04 ± 3.7E-3	121.37 ± 8.03	262.45 ± 19.41	1.18 ± 0.23	4.15 ± 0.53	90.75 ± 12.03	11.63 ± 2.44	0.38 ± 0.05	293.74 ± 2.06	6.69 ± 0.40	144.61 ± 3.41	3.21 ± 0.39	3.75 ± 0.75	0.43 ± 0.07	0.34 ± 0.06	Renal Lipoperoxidation (Wistar rats [5]): 0.44 ± 0.09 URF/mg protein; Hepatic Lipoperoxidation (Wistar rats [5]): 0.80 ± 0.03 URF/mg protein; PAH t/m ratio [6]: 1.92 ± 0.23; PAH t/m ratio, change in words ([6]; versus control (2a also versus Tween 80 and 2b)): decreased; Renal ROS (Wistar rats [7]): 184.33 ± 42.31 nM de DCF/mg protein/h; Hepatic ROS (Wistar rats [7]): 290.96 ± 40.60 nM de DCF/mg protein/h; Category (GHS acute oral toxicity hazard category) (NIH mice): 5; Hazard statement (GHS) (NIH mice): May be harmful if swallowed; Oral LD50 (NIH mice): > 2.000 g/kg b.w.
